According to patent US12673039B2, “Methods of inducing autophagy using coumarin derivatives and related compounds” (Buck Institute for Research on Aging, priority 2019, dated 2026):

Test system: C. elegans
Assay: Autophagic flux and lysosomal reporters in C. elegans
Format: in vivo
Method: FIGS. 12A-12B illustrate that coumarin 106 (“C1”, “AIC106”) promotes induction of autophagic markers. FIG. 12A) Increased APG:APL fusion as assessed by green to red fluorescence shift following addition of 20 μM C1 versus DMSO-only control to ttdLGG-1:GFP worms expressing a pH sensitive GFP. FIG. 12B) Increases in autophagic flux as assessed by increased GFP fluorescence within p62::GFP and plmp-1::GFP expressing worms following addition of 20 μM C1 versus DMSO-only controls.
FIG. 19, panels A-G: AIC106 increases autophagic flux and lysosomal function in C. elegans. Panel A) Relative fold change in mRNA of autophagosome-specific protein p62/Sqstm-1 compared to DMSO-control was quantified using qRT-PCR in young adult wild-type N2 worms post-24 hours treatment with AIC106. [N=3 independent experiments (mean±SD). *p<0.05 and **p<0.01, by one-way ANOVA with Sidak's multiple comparisons test]. Panel B) Changes in p62/SQSTM-1 expression were measured by quantifying GFP intensity in an individual GFP-tagged p62/SQSTM-1 worm (HZ589) post-24 hours treatment with AIC106 and DMSO-control, followed by RNAi treatment. [N=3 independent experiments (mean±SD). ****p<0.0001, by one-way ANOVA with Tukey's multiple comparisons test]. Panel C) p62/SQSTM-1; GFP (HZ589) was monitored by fluorescence microscopy. Panel D) Changes in lysosomal number were measured by quantifying GFP intensity in an individual GFP-tagged LMP-1 worm (RT258) post-24 hours treatment with AIC106 and DMSO-control. [N=3 independent experiments (mean±SD). ****p<0.0001, by unpaired t-test]. Panel E) RT258 worms were monitored by fluorescence microscopy. Panel F) Changes in lysosomal number were measured by quantifying fluorescence intensity in an individual Lysotracker Red stained wild type N2 worms post-24 hours treatment with AIC106 and DMSO-control. [N=3 independent experiments (mean±SD). ****p<0.0001, by unpaired t-test]. Panel G) Lysotracker Red stained wild type N2 worms were monitored by fluorescence microscopy.
FIG. 26, panels A-B: AIC106 enhances autophagy flux in C. elegans. Panel A) Monitoring of tandem reporter lgg-1p::mCherry::GFP::lgg-1 expressing worms was performed by fluorescence microscopy. Panel B) Effects of AIC106 treatment on GFP and mCherry by time were measured by fluorescence microscopy after AIC106 or DMSO-control treatment for 24 h. [N=3 independent experiments (mean±SD). *p<0.05 and **p<0.01, by unpaired t-test].
Synchronized populations of day-1 adult worms expressing reporter GFP transgene or stained with a dye/stain (Lysotracker and TMRM) and grown at 20° C. were transferred to compound or DMSO plates. Fluorescence expression was analyzed at the time specified for each individual strain (see figure legends). Worms were paralyzed in 2 mM levamisole, mounted on 2% agarose pads with glass cover slips, and imaged immediately with an Axio Zeiss microscope. Appropriate filters were used to visualize GFP, Lysotracker red and TMRM were visualized under rhodamine filter. Approximately 20-40 worms per treatment were used. Fluorescence intensity normalized to worm area was measured using NIH ImageJ software. Transgenic reporters used in the study are HZ589 him-5(e1490) V; bpIs151[sqst-1p::sqst-1::GFP+unc-76(+)], RT258 unc-119(ed3) III; pwIs50 [lmp-1::GFP+Cbr-unc-119(+)], UA44 UA44(baIn11[Pdat-1::α-syn, Pdat-1::GFP]), AM141 rmIs133 [unc-54p::Q40::YFP]LAMP-1:GFP.
Synchronized day-1 adult N2 worms were transferred to DMSO control or compound treated plates for 24 hours at 20° C. On day-2, worms were transferred to 35 mm OP50 seeded assay plates treated with compound or DMSO plates overlaid with 1 μM LysoTracker™ Red DND-99 (Molecular Probes) for 24 hours at 20° C. Post-24 hours on LysoTracker stain, worms were picked and washed in a fresh drop of 1×M9 medium to remove excess stain and mounted on 2% agarose pad slides for microscopic visualization. Worm images were taken in a Zeiss Imager Z1 fluorescence microscope using rhodamine filters. […]

O=c1oc2c3c4c(cc2c2c1CCC2)CCCN4CCC3 [C1, 2,3,6,7,10,11-Hexahydro-1H,5H-cyclopenta(3,4)(1)benzopyrano(6,7,8-ij)quinolizin-12(9H)-one]
autophagic flux (20 μM C1 (FIG. 12)): increased autophagic flux | tandem mCherry-GFP-LGG-1 reporter (autophagosomal:lysosomal fusion) (24 h (FIG. 26)): decreased GFP intensity in conjunction with significant increase in mCherry-only intensity | p62/SQSTM-1 protein levels (GFP) (HZ589 worms, 24 hours): enhanced p62/SQSTM-1 protein levels | lysosomal biogenesis by LysoTracker red staining (N2 worms): validated via LysoTracker red staining | p62/Sqstm-1 mRNA (N2 worms, 24 hours): increased mRNA levels of p62/Sqstm-1 | lysosomal biogenesis (GFP-tagged LAMP-1/LMP-1) (RT258 worms, 24 hours): increase in lysosomal biogenesis
